Assay results: patent publication US11840533B2, “Pyridinone-based epigenetic modifiers and uses thereof” (THE BOARD OF TRUSTEES OF THE UNIVERSITY OF ILLINOIS, priority 2017, dated 2023)

System: fulvestrant-resistant MCF7:5C-FR cells
Assay: Fulvestrant-resistant breast cancer cell viability (cell proliferation) assay
Format: cell-based
Conditions: growth inhibition in fulvestrant-resistant MCF-7:CFR cells, 120 hrs
Description: For the cell proliferation assay, the fulvestrant-resistant MCF7:5C-FR cells were seeded at about 2000 to about 2500/well in 96-well plates. The next day, compounds were add to the cells at desired serial concentrations form 3 nM to 10 uM. A final 0.1% (v/v) DMSO was used as vehicle control and 1 uM JQ1 was used as positive. The cell were grown in the normal culture condition for 120 hrs. Then the Hoechst 33342 dye were add to each well at a final concentration of 5 μg/ml, and put back to the incubator at 37 C for 90 min. The plates were scanned immediately after the incubation with Celigo (Nexcelcom Biocesnse) for the fluorescence of the nuclear using DAPI channel, and the cell number was counted thought the analysis function of the Celigo software. The normalized cell number to the vehicle control was used to represent the cell proliferation. […] N.D.=Not determined.

Row | IC50 (120 h) | Compound | IC50
1 | > 5 µM | Cn1ccc2ccnc(O)c21 [Compound 1, 1-methyl-1H-pyrrolo[2,3-c]pyridin-7-ol] | –
2 | 0.157 µM | Cn1cc(C(=O)c2cccc(-c3ccc(F)cc3)c2)c2ccnc(O)c21 [Compound 2, (4′-fluoro-[1,1′-biphenyl]-3-yl)(7-hydroxy-1-methyl-1H-pyrrolo[2,3-c]pyridin-3-yl)methanone] | –
3 | > 1 µM | O=C(c1cccc(-c2ccc(F)cc2)c1)c1c[nH]c2c(O)nccc12 [Compound 3, (4′-fluoro-[1,1′-biphenyl]-3-yl)(7-hydroxy-1H-pyrrolo[2,3-c]pyridin-3-yl)methanone] | –
4 | > 5 µM | Cn1cc(C(=O)c2ccc(-c3ccc(F)cc3)cc2)c2ccnc(O)c21 [Compound 4, (4′-fluoro-[1,1′-biphenyl]-4-yl)(7-hydroxy-1-methyl-1H-pyrrolo[2,3-c]pyridin-3-yl)methanone] | –
5 | > 5 µM | Cn1cc(C(=O)c2ccccc2)c2ccnc(O)c21 [Compound 5, (7-hydroxy-1-methyl-1H-pyrrolo[2,3-c]pyridin-3-yl)(phenyl)methanone] | –
6 | > 5 µM | Cn1cc(C(=O)c2ccccc2Cl)c2ccnc(O)c21 [Compound 6, (2-chlorophenyl)(7-hydroxy-1-methyl-1H-pyrrolo[2,3-c]pyridin-3-yl)methanone] | –
7 | 1.5 µM | O=C(c1cccc(-c2ccc(F)cc2)c1)c1cn(CCCl)c2c(O)nccc12 [Compound 7, (1-(2-chloroethyl)-7-hydroxy-1H-pyrrolo[2,3-c]pyridin-3-yl)(4′-fluoro-[1,1′-biphenyl]-3-yl)methanone] | –
8 | – | O=C(c1cccc(-c2ccc(F)cc2)c1)c1cn(CCCCl)c2c(O)nccc12 [Compound 8, (1-(3-chloropropyl)-7-hydroxy-1H-pyrrolo[2,3-c]pyridin-3-yl)(4′-fluoro-[1,1′-biphenyl]-3-yl)methanone] | > 5 µM
9 | > 5 µM | Cn1cc(C(OCc2ccc(F)cc2)c2cccc(-c3ccc(F)cc3)c2)c2ccnc(O)c21 (stereo not shown) [Compound 9, 3-((4′-fluoro-[1,1′-biphenyl]-3-yl)((4-fluorobenzyl)oxy)methyl)-1-methyl-1H-pyrrolo[2,3-c]pyridin-7-ol] | –
10 | 0.3 µM | Cn1cc(C(Oc2ccc(F)cc2)c2cccc(-c3ccc(F)cc3)c2)c2ccnc(O)c21 (stereo not shown) [Compound 10, 3-((4′-fluoro-[1,1′-biphenyl]-3-yl)(4-fluorophenoxy)methyl)-1-methyl-1H-pyrrolo[2,3-c]pyridin-7-ol] | –
11 | > 5 µM | Cn1cc(C(OCC2CCC2)c2cccc(-c3ccc(F)cc3)c2)c2ccnc(O)c21 (stereo not shown) [Compound 11, 3-((cyclobutylmethoxy)(4′-fluoro-[1,1′-biphenyl]-3-yl)methyl)-1-methyl-1H-pyrrolo[2,3-c]pyridin-7-ol] | –
12 | > 1 µM | CNS(=O)(=O)CCc1ccc(O)cc1C(=O)c1cn(C)c2c(O)nccc12 [Compound 12, 2-(4-hydroxy-2-(7-hydroxy-1-methyl-1H-pyrrolo[2,3-c]pyridine-3-carbonyl)phenyl)-N-methylethane-1-sulfonamide] | –
13 | > 1 µM | CNS(=O)(=O)CCc1ccc(OCc2ccc(F)cc2)cc1C(=O)c1cn(C)c2c(O)nccc12 [Compound 13, 2-(4-((4-fluorobenzyl)oxy)-2-(7-hydroxy-1-methyl-1H-pyrrolo[2,3-c]pyridine-3-carbonyl)phenyl)-N-methylethane-1-sulfonamide] | –
14 | > 1 µM | CNS(=O)(=O)CCc1ccc(OCC2CCC2)cc1C(=O)c1cn(C)c2c(O)nccc12 [Compound 14, 2-(4-(cyclobutylmethoxy)-2-(7-hydroxy-1-methyl-1H-pyrrolo[2,3-c]pyridine-3-carbonyl)phenyl)-N-methylethane-1-sulfonamide] | –
15 | > 1 µM | CNS(=O)(=O)CCc1ccc(OC)cc1C(=O)c1cn(C)c2c(O)nccc12 [Compound 15, 2-(2-(7-hydroxy-1-methyl-1H-pyrrolo[2,3-c]pyridine-3-carbonyl)-4-methoxyphenyl)-N-methylethane-1-sulfonamide] | –
16 | > 1 µM | Cn1cc(-c2cn(CC(N)=O)c3ccc(-c4ccc(F)cc4)cc23)c2ccnc(O)c21 [Compound 16, 2-(5-(4-fluorophenyl)-3-(7-hydroxy-1-methyl-1H-pyrrolo[2,3-c]pyridin-3-yl)-1H-indol-1-yl)acetamide] | –
17 | > 1 µM | Cn1cc(-c2c[nH]c3ccc(-c4ccc(F)cc4)cc23)c2ccnc(O)c21 [Compound 17, 3-(5-(4-fluorophenyl)-1H-indol-3-yl)-1-methyl-1H-pyrrolo[2,3-c]pyridin-7-ol] | –

Row | IC50 (120 h) | Compound | IC50
18 | > 1 µM | Cn1cc(-c2cn(CC(N)=O)c3ccc(Br)cc23)c2ccnc(O)c21 [Compound 18, 2-(5-bromo-3-(7-hydroxy-1-methyl-1H-pyrrolo[2,3-c]pyridin-3-yl)-1H-indol-1-yl)acetamide] | –
19 | > 1 µM | Cn1cc(-c2c[nH]c3ccc(Br)cc23)c2ccnc(O)c21 [Compound 19, 3-(5-bromo-1H-indol-3-yl)-1-methyl-1H-pyrrolo[2,3-c]pyridin-7-ol] | –
20 | 1.99 µM | Cn1cc(-c2cc(NS(C)(=O)=O)cc3ccn(Cc4ccc(F)cc4)c23)c2ccnc(O)c21 [Compound 20, N-(1-(4-fluorobenzyl)-7-(7-hydroxy-1-methyl-1H-pyrrolo[2,3-c]pyridin-3-yl)-1H-indol-5-yl)methanesulfonamide] | –
21 | 3.5 µM | Cc1cc(F)ccc1Cn1ccc2cc(NS(C)(=O)=O)cc(-c3cn(C)c4c(O)nccc34)c21 [Compound 21, N-(1-(4-fluoro-2-methylbenzyl)-7-(7-hydroxy-1-methyl-1H-pyrrolo[2,3-c]pyridin-3-yl)-1H-indol-5-yl)methanesulfonamide] | –
22 | 0.526 µM | Cc1cc(F)cc(C)c1Cn1ccc2cc(NS(C)(=O)=O)cc(-c3cn(C)c4c(O)nccc34)c21 [Compound 22, N-(1-(4-fluoro-2,6-dimethylbenzyl)-7-(7-hydroxy-1-methyl-1H-pyrrolo[2,3-c]pyridin-3-yl)-1H-indol-5-yl)methanesulfonamide] | –
23 | < 0.2 µM | CCS(=O)(=O)Nc1cc(-c2cn(C)c3c(O)nccc23)cc2c1ccn2Cc1ccc(F)cc1 [Compound 24, N-(1-(4-fluorobenzyl)-6-(7-hydroxy-1-methyl-1H-pyrrolo[2,3-c]pyridin-3-yl)-1H-indol-4-yl)ethanesulfonamide] | –
24 | < 0.2 µM | CCS(=O)(=O)Nc1cc(-c2cn(C)c3c(O)nccc23)cc2c1ccn2Cc1ccc(F)cc1C [Compound 25, N-(1-(4-fluoro-2-methylbenzyl)-6-(7-hydroxy-1-methyl-1H-pyrrolo[2,3-c]pyridin-3-yl)-1H-indol-4-yl)ethanesulfonamide] | –
25 | < 0.2 µM | CCS(=O)(=O)Nc1cc(-c2cn(C)c3c(O)nccc23)cc2c1ccn2Cc1ccc(F)cc1Cl [Compound 26, N-(1-(2-chloro-4-fluorobenzyl)-6-(7-hydroxy-1-methyl-1H-pyrrolo[2,3-c]pyridin-3-yl)-1H-indol-4-yl)ethanesulfonamide] | –
26 | < 1 µM | CCS(=O)(=O)Nc1cc(-c2cn(C)c3c(O)nccc23)cc2c1ccn2Cc1c(C)cc(F)cc1C [Compound 27, N-(1-(4-fluoro-2,6-dimethylbenzyl)-6-(7-hydroxy-1-methyl-1H-pyrrolo[2,3-c]pyridin-3-yl)-1H-indol-4-yl)ethanesulfonamide] | –
27 | < 1 µM | CCS(=O)(=O)Nc1cc(-c2cn(C)c3c(O)nccc23)cc2c1ccn2Cc1c(C)cccc1C [Compound 28, N-(1-(2,6-dimethylbenzyl)-6-(7-hydroxy-1-methyl-1H-pyrrolo[2,3-c]pyridin-3-yl)-1H-indol-4-yl)ethanesulfonamide] | –
28 | < 0.5 µM | CCS(=O)(=O)Nc1cc(-c2cn(C)c3c(O)nccc23)cc2c1ccn2Cc1ccc(F)cc1F [Compound 29, N-(1-(2,4-difluorobenzyl)-6-(7-hydroxy-1-methyl-1H-pyrrolo[2,3-c]pyridin-3-yl)-1H-indol-4-yl)ethanesulfonamide] | –
29 | < 0.2 µM | CCS(=O)(=O)Nc1cc(-c2cn(C)c3c(O)nccc23)cc2c1cnn2Cc1ccc(F)cc1C [Compound 32, N-(1-(4-fluoro-2-methylbenzyl)-6-(7-hydroxy-1-methyl-1H-pyrrolo[2,3-c]pyridin-3-yl)-1H-indazol-4-yl)ethanesulfonamide] | –
30 | < 1 µM | CCS(=O)(=O)Nc1cc(-c2cn(C)c3c(O)nccc23)cc2c1cnn2Cc1c(C)cc(F)cc1C [Compound 33, N-(1-(4-fluoro-2,6-dimethylbenzyl)-6-(7-hydroxy-1-methyl-1H-pyrrolo[2,3-c]pyridin-3-yl)-1H-indazol-4-yl)ethanesulfonamide] | –
31 | < 0.5 µM | CCS(=O)(=O)Nc1cc(-c2cn(C)c3c(O)nccc23)cc2c1cnn2Cc1ccc(F)cc1F [Compound 34, N-(1-(2,4-difluorobenzyl)-6-(7-hydroxy-1-methyl-1H-pyrrolo[2,3-c]pyridin-3-yl)-1H-indazol-4-yl)ethanesulfonamide] | –
32 | < 0.5 µM | CCS(=O)(=O)Nc1cc(-c2cn(C)c3c(O)nccc23)cc2c1cnn2Cc1ccc(F)cc1Cl [Compound 35, N-(1-(2-chloro-4-fluorobenzyl)-6-(7-hydroxy-1-methyl-1H-pyrrolo[2,3-c]pyridin-3-yl)-1H-indazol-4-yl)ethanesulfonamide] | –
33 | < 1 µM | CCS(=O)(=O)Nc1cc(-c2cn(C)c3c(O)nccc23)cc2c1cnn2Cc1cccc(Cl)c1Cl [Compound 36, N-(1-(2,3-dichlorobenzyl)-6-(7-hydroxy-1-methyl-1H-pyrrolo[2,3-c]pyridin-3-yl)-1H-indazol-4-yl)ethanesulfonamide] | –
34 | < 1 µM | CCS(=O)(=O)Nc1cc(-c2cn(C)c3c(O)nccc23)cc2c1ncn2Cc1ccc(F)cc1 [Compound 37, N-(1-(4-fluorobenzyl)-6-(7-hydroxy-1-methyl-1H-pyrrolo[2,3-c]pyridin-3-yl)-1H-benzo[d]imidazol-4-yl)ethanesulfonamide] | –
